The text below walks through data of ChEMBL document CHEMBL3871292, “Evaluation of dipeptide nitriles as inhibitors of rhodesain, a major cysteine protease of Trypanosoma brucei” (Bioorg Med Chem Lett, 2017).

For one series, the system named is Trypanosoma brucei. The series is described as follows: Inhibition of Trypanosoma brucei rhodesain using Cbz-Phe-Arg-AMC as substrate at 20 uM by fluorescence-based assay.
Settings: not given
Regarding `CC(C)(C)OC(=O)N[C@@H](Cc1ccc(-c2ccccc2)cc1)C(=O)NCC#N`, the inhibition (as a rule, the share of the control response that was lost under treatment) was over 50%.
The same measure, in the same setting: with `CC(C)(C)OC(=O)N[C@@H](Cc1ccsc1)C(=O)NCC#N` the figure was over 50%; with `CC(C)(C)OC(=O)N[C@@H](Cc1cccc(F)c1)C(=O)NCC#N`, over 50%.
On the same count and under the same terms, with `N#CCNC(=O)C1(NC(=O)OCc2ccccc2)CCCCC1` the figure was 22%.
Turning to `CC(C)(C)OC(=O)N[C@H](C(=O)NCC#N)c1ccccc1`, the inhibition was over 50%.
Molecule `CC(C)(C)OC(=O)N[C@@H](Cc1c[nH]c2ccccc12)C(=O)NCC#N` registered an inhibition of over 50%.
The same measure, in the same setting: with `CC(C)(C)OC(=O)N[C@@H](Cc1csc2ccccc12)C(=O)NCC#N` the figure was over 50%; with `CC(C)CS(=O)(=O)CC(NC(=O)c1cccs1)C(=O)NCC#N` (racemic), 9%.
Still for that read-out and setting: with `CC(C)(C)OC(=O)N[C@@H](Cc1cccc(Br)c1)C(=O)NCC#N` the figure was over 50%; with `CC(C)(C)OC(=O)N[C@@H](Cc1ccc(Br)cc1)C(=O)NCC#N`, over 50%; with `CC[C@H](C)[C@H](NC(=O)OC(C)(C)C)C(=O)NCC#N`, over 50%.
Take `CN(C)c1cccc2c(S(=O)(=O)N[C@@H](Cc3ccccc3)C(=O)NCC#N)cccc12`: the inhibition is over 50%.
`N#CCNC(=O)[C@H](Cc1ccccc1)NC(=O)OCc1ccccc1` displayed an inhibition of over 50%.
On the same count and under the same terms, in the case of `CC(C)CS(=O)(=O)CC(NC(=O)c1ccc(-c2cccs2)cc1)C(=O)NCC#N` (racemic) it was 25%.
The molecule `CC(C)CS(=O)(=O)CC(NC(=O)c1cc2ccccc2s1)C(=O)NCC#N` (racemic) showed an inhibition of 15%.
On the same count and under the same terms, in the case of `CCN(CC)c1ccc2cc(C(=O)NC3(C(=O)NCC#N)CCCCC3)c(=O)oc2c1` it was over 50%.
In turn, `CC(C)(C)OC(=O)N[C@@H](CC1CCCCC1)C(=O)NCC#N` gave an inhibition of over 50%.
Turning to `CC(C)(C)OC(=O)N[C@@H](Cc1ccc(F)cc1)C(=O)NCC#N`, the inhibition was over 50%.
On the same count and under the same terms, with `CC(C)CS(=O)(=O)CC(NC(=O)c1ccc(-c2cccs2)s1)C(=O)NCC#N` (racemic) the figure was over 50%; with `CC(C)C[C@H](NC(=O)Nc1ccc(-c2noc(-c3cccs3)n2)cc1)C(=O)NCC#N`, over 50%; with `CC(C)[C@H](NC(=O)OC(C)(C)C)C(=O)NCC#N`, over 50%.

For a further series, the system named is Trypanosoma brucei. The series is described as follows: Inhibition of Trypanosoma brucei rhodesain using Cbz-Phe-Arg-AMC as substrate at 0.05 to 20 uM by fluorescence-based assay. To be noted: TDE = time-dependent effect.
In the case of `CC(C)(C)OC(=O)N[C@@H](Cc1ccc(Br)cc1)C(=O)NCC#N`, the inhibition entry is “Tde”.

Biological target in a further series: not listed separately
The series is described as follows: Inhibition of Trypanosoma brucei rhodesain using Cbz-Phe-Arg-AMC as substrate by fluorescence-based assay.
Settings: not given
In the case of `CC(C)(C)OC(=O)N[C@@H](Cc1ccc(-c2ccccc2)cc1)C(=O)NCC#N`, the Ki (usually the dissociation constant of the complex between target and ligand, obtained from inhibition or displacement) was determined as 52 nM.
The same measure, in the same setting: in the case of `CC(C)(C)OC(=O)N[C@@H](Cc1ccsc1)C(=O)NCC#N` it was 387 nM.
Still for that read-out and setting: in the case of `CC(C)(C)OC(=O)N[C@@H](Cc1cccc(F)c1)C(=O)NCC#N` it was 73.8 nM; in that of `CC(C)(C)OC(=O)N[C@H](C(=O)NCC#N)c1ccccc1`, 795 nM; in that of `CC(C)(C)OC(=O)N[C@@H](Cc1c[nH]c2ccccc12)C(=O)NCC#N`, 125 nM.
Same read-out and setting: in the case of `CC(C)(C)OC(=O)N[C@@H](Cc1csc2ccccc12)C(=O)NCC#N` it was 90 nM; in that of `CC(C)(C)OC(=O)N[C@@H](Cc1cccc(Br)c1)C(=O)NCC#N`, 27.6 nM.
For the molecule `CC(C)(C)OC(=O)N[C@@H](Cc1ccc(Br)cc1)C(=O)NCC#N`, the Ki was found to be 12.3 nM.
On the same count and under the same terms, in the case of `CC[C@H](C)[C@H](NC(=O)OC(C)(C)C)C(=O)NCC#N` it was 1470 nM; in that of `CN(C)c1cccc2c(S(=O)(=O)N[C@@H](Cc3ccccc3)C(=O)NCC#N)cccc12`, 413 nM.
On the same count and under the same terms, with `N#CCNC(=O)[C@H](Cc1ccccc1)NC(=O)OCc1ccccc1` the figure was 42 nM; with `CCN(CC)c1ccc2cc(C(=O)NC3(C(=O)NCC#N)CCCCC3)c(=O)oc2c1`, 790 nM.
Still for that read-out and setting: with `CC(C)(C)OC(=O)N[C@@H](CC1CCCCC1)C(=O)NCC#N` the figure was 68 nM; with `CC(C)(C)OC(=O)N[C@@H](Cc1ccc(F)cc1)C(=O)NCC#N`, 43.8 nM.
`CC(C)CS(=O)(=O)CC(NC(=O)c1ccc(-c2cccs2)s1)C(=O)NCC#N` (racemic) came in with a Ki of 900 nM.
For `CC(C)C[C@H](NC(=O)Nc1ccc(-c2noc(-c3cccs3)n2)cc1)C(=O)NCC#N`, the Ki is 172 nM.
On to `CC(C)[C@H](NC(=O)OC(C)(C)C)C(=O)NCC#N`, for which the Ki came out at 1490 nM.

For the next series, the target named is Procathepsin L (Homo sapiens, UniProt P07711). Nature of the series: Inhibition of human cathepsin L using Z-Phe-Arg-pNA as substrate measured after 10 to 80 mins by spectrophotometric method.
Chain of Procathepsin L (P07711 whole entry): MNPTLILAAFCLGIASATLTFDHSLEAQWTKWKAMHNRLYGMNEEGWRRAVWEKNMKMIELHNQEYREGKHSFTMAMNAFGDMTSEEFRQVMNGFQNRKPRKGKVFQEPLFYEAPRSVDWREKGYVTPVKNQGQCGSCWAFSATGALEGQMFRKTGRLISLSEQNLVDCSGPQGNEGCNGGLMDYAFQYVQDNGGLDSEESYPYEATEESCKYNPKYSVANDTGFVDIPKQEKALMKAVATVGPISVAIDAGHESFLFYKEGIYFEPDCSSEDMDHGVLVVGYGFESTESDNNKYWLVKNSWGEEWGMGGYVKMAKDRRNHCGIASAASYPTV
Settings: not given
Regarding `N#CCNC(=O)C1(NC(=O)OCc2ccccc2)CCCCC1`, the Ki is over 5000 nM.

For the next series, the system named is Trypanosoma brucei brucei. Nature of the series: Antitrypanosomal activity against Trypanosoma brucei brucei BS449 measured after 24 hrs using ATPlite-1 reagent by cell based luciferase reporter gene assay. The series is classed as functional. The note with it: BS449, 24 h, read-out: EC50.
For the molecule `N=C(NCCCCCCNC(=N)NC(=N)Nc1ccc(Cl)cc1)NC(=N)Nc1ccc(Cl)cc1` [CHLORHEXIDINE], the EC50 amounted to 440 nM.
Turning to `CC(C)(C)OC(=O)N[C@@H](Cc1ccc(Br)cc1)C(=O)NCC#N`, the EC50 worked out at 43000 nM.
Regarding `N#CCNC(=O)[C@H](Cc1ccccc1)NC(=O)OCc1ccccc1`, the EC50 came out at 63000 nM.
On to `CC(C)(C)OC(=O)N[C@@H](Cc1ccc(F)cc1)C(=O)NCC#N`, for which the EC50 came out at 169000 nM.

Staying with this series, now noted: BS449, 24 h, read-out: pEC50 (converted).
With `N=C(NCCCCCCNC(=N)NC(=N)Nc1ccc(Cl)cc1)NC(=N)Nc1ccc(Cl)cc1` [CHLORHEXIDINE], the EC50 is 441 nM.

The subject of another series is Trypanosoma brucei brucei. Nature of the series: Antitrypanosomal activity against Trypanosoma brucei brucei Trypanosoma brucei brucei BS449 measured after 48 hrs using ATPlite-1 reagent by cell based luciferase reporter gene assay. The series is classed as functional. The note with it: BS449, 48 h, read-out: EC50. Background: ATP-based viability assays read luminescence as a measure of living cells.
Consider `N=C(NCCCCCCNC(=N)NC(=N)Nc1ccc(Cl)cc1)NC(=N)Nc1ccc(Cl)cc1` [CHLORHEXIDINE], for which the EC50 is 321 nM.
Regarding `CC(C)(C)OC(=O)N[C@@H](Cc1ccc(Br)cc1)C(=O)NCC#N`, the EC50 came to 104000 nM.
Turning to `N#CCNC(=O)[C@H](Cc1ccccc1)NC(=O)OCc1ccccc1`, the EC50 came out at 79000 nM.
On the same count and under the same terms, with `CC(C)(C)OC(=O)N[C@@H](Cc1ccc(F)cc1)C(=O)NCC#N` the figure was 105000 nM.

The series is the same for the next values; noted with them: BS449, 48 h, read-out: pEC50 (converted).
In the case of `N=C(NCCCCCCNC(=N)NC(=N)Nc1ccc(Cl)cc1)NC(=N)Nc1ccc(Cl)cc1` [CHLORHEXIDINE], the EC50 was 321 nM.

The next series has as its system Trypanosoma brucei brucei. Nature of the series: Antitrypanosomal activity against Trypanosoma brucei brucei BS449 measured after 72 hrs using ATPlite-1 reagent by cell based luciferase reporter gene assay. Format: functional.
Settings: not given
Consider `N#CCNC(=O)[C@H](Cc1ccccc1)NC(=O)OCc1ccccc1`, for which the EC50 result is listed as “Nd(Unstable)”.

The same series, now with this note: Trypanosoma brucei, BS449, 72 h; read-out: EC50.
`N=C(NCCCCCCNC(=N)NC(=N)Nc1ccc(Cl)cc1)NC(=N)Nc1ccc(Cl)cc1` [CHLORHEXIDINE]: the EC50 was determined as 349 nM.
The same measure, in the same setting: with `CC(C)(C)OC(=O)N[C@@H](Cc1ccc(Br)cc1)C(=O)NCC#N` the figure was 129000 nM; with `CC(C)(C)OC(=O)N[C@@H](Cc1ccc(F)cc1)C(=O)NCC#N`, 217000 nM.

Still in this series, the particulars now being: Trypanosoma brucei, BS449, 72 h; read-out: pEC50 (converted).
In the case of `N=C(NCCCCCCNC(=N)NC(=N)Nc1ccc(Cl)cc1)NC(=N)Nc1ccc(Cl)cc1` [CHLORHEXIDINE], the EC50 is 350 nM.
Take `CC(C)(C)OC(=O)N[C@@H](Cc1ccc(Br)cc1)C(=O)NCC#N`: the EC50 is 130000 nM.
In the case of `CC(C)(C)OC(=O)N[C@@H](Cc1ccc(F)cc1)C(=O)NCC#N`, the EC50 was 217000 nM.

Tested on in another series: not listed separately
The series is described as follows: Stability of the compound in HMI-9 medium measured after 48 hrs. The series is classed as physicochemical.
Settings: not given
As for `N#CCNC(=O)[C@H](Cc1ccccc1)NC(=O)OCc1ccccc1`, the Stability result is given as “Unstable”.
